Assays:
[1] = system: primary hippocampal neurons; assay: Spontaneous and miniature EPSCs/IPSCs in primary hippocampal neurons, voltage-clamp; type: cell-based, rat; settings: for effect on amplitude of miniature EPSCs and IPSCs: NH29 at 25 μM, data not shown
Protocol: For hippocampal neuronal cultures, Sprague-Dawley rat embryos (E18) were removed by caesarian section and their hippocampi were dissected out. The tissue was digested with papain for 20 min, triturated to a single-cell suspension, and plated at a density of 40,000 cells per ml on a substrate of bovine collagen type IV and 100 μg/ml poly-L-lysine in 13 mm diameter glass coverslips of a 24-multiwell plate. The culture medium consisted of Modified Eagle's Medium containing 5% horse serum (Biological Industries, Beit HaEmek, Israel), B-27 neuronal supplement (Invitrogen, Carlsbad, Calif.), 100 U/ml penicillin, 100 μg/ml streptomycin, and 2 mM glutamine. D-glucose was supplemented to a final concentration of 6 g/l. Cytosine-1-D-arabinofuranoside (5 μM) was added after 5 days to arrest glial cell proliferation.
For electrophysiological recordings hippocampal neurons were used at 10-14 days in culture. All cultures were maintained at 37° C. in humidified air containing 5% CO2.
Spontaneous excitatory postsynaptic currents (EPSCs) were recorded in the voltage-clamp configuration of the whole-cell patch-clamp technique at a holding potential of −70 mV as previously described; the extracellular solution contained (in mM) 160 NaCl, 2.5 KCl, 10 HEPES, 10 glucose, 2 CaCl2; pH 7.3 (325 mOsm), to which 30 μM picrotoxin and 10 μM bicuculline methyl iodide were added. The intracellular solution consisted (in mM) of 130 K-gluconate, 10 KCl, 1.1 EGTA, 10 HEPES, 1 MgCl2, 2 Na2ATP, 0.1 CaCl2 and 5 QX314Br to block Na^+ currents; pH 7.2 (315 mOsm).
Spontaneous inhibitory postsynaptic currents (IPSCs) were recorded at a holding potential of −70 mV; the extracellular solution contained (in mM) 160 NaCl, 2.5 KCl, 10 HEPES, 10 glucose, 2 CaCl2; pH 7.3 (325 mOsm), to which 10 μM NBQX and 10 μM AP-5 were added. The intracellular solution consisted (in mM) of 144 CsCl, 10 HEPES, 1.1 EGTA, 0.1 CaCl2, 5 MgCl2, 2 Na2ATP, 5 QX314 Br; pH 7.3 (315 mOsm).
Data analysis was performed using the Clampfit program (pClamp 9.2, Molecular Devices), Microsoft Excel (Microsoft) and Prism 4.0 (GraphPad). Chord conductance (G) was calculated by using the following equation: G=I/(V−Vrev) where I corresponds to the current amplitude measured at the end of the pulse and Vrev, the calculated reversal potential. G was estimated at various test voltages V and then, normalized to a maximal conductance value, Gmax. Activation curves were fitted by one Boltzmann distribution: G/Gmax=1/{1+exp[(V50−V)/s]} where V50 is the voltage at which the current is half-activated and s is the slope factor. All data were expressed as mean±SEM. Statistically significant differences were assessed by Student's t-test. Analysis of sEPSCs and sIPSCs was done using the Clampfit program (pClamp 9.2, Molecular Devices) and included evaluation of the individual events as well as the average event amplitude and the integral of the event (total charge transfer).
Because of their slow activation and their lack of inactivation, M-channels could modulate neuronal activity during repetitive spike discharge and tune neurotransmitter release. FIG. 6 illustrates the effect of NH25 on synaptic transmission and transmitter release. Spontaneous excitatory and inhibitory post-synaptic currents (sEPSCs and sIPSCs) were recorded from dense cultures of primary hippocampal neurons, using the voltage-clamp configuration of the whole-cell patch-clamp technique.

DRG neurons = assay: Current-clamp recordings in cultured DRG neurons; type: cell-based, rat; settings: for rheobase current to generate a single spike: 2 ms injection
Protocol: For dorsal root ganglion (DRG) neuronal cultures, ganglia were dissected from 2-5 day-old Sprague-Dawley rats killed by decapitation. DRGs were placed in Hank's balanced saline solution (HBSS) and prepared by enzymatic dissociation. Briefly, after 30 minutes incubation in 5 mg/ml dispase, 2 mg/ml collagenase type 1A and 0.1 mg/ml DNase (Invitrogen/Gibco, Carlsbad, Calif.) in Ca^2+ and Mg^2+-free HBSS, the ganglia were mechanically triturated with a fire-polished glass Pasteur pipette. The ganglia were then centrifuged for 5 minutes at 80×g and resuspended in DMEM supplemented with 2 mM L-glutamine, 16.5 mM NaHCO3, 6 g/l glucose, 5 ml penicillin/streptomycin and 10% fetal calf serum.
For electrophysiological recording, dissociated neurons were plated on 13 mm glass coverslips, previously coated with poly-D-lysine (1 mg/ml) and laminin (10 μg/ml) and used at 1-2 days in culture.
For current-clamp recordings in primary cultured neurons, the patch pipettes were filled with (in mM): 135 KCl, 1 K2ATP, 1 MgATP, 2 EGTA, 1.1 CaCl2, 5 glucose, 10 HEPES, adjusted with KOH at pH 7.4 (315 mOsm). The external solution contained (in mM): 150 NaCl, 2.5 KCl, 2 CaCl2, 2 MgCl2, 15 glucose, 10 HEPES, adjusted with NaOH at pH 7.4 (325 mOsm). Recordings were sampled at 5 kHz and filtered at 2 KHz via a 4-pole Bessel low pass filter. A liquid junction potential of about −15.6 mV was measured between the intracellular and saline solutions and corrected on-line.
For evoking spike discharges, 75-200 pA square depolarizing current pulses were injected into neurons for 400 ms. For rheobase current measurements, 100-1100 pA square depolarizing current pulses were injected into neurons for 2 ms.

Row | SMILES | effect on amplitude and kinetics of sIPSCs ([1]; 25 μM) | reduction of charge transfer within the bursts of sEPSCs ([1]; 25 μM) | reduction of total charge transfer of sEPSCs ([1]; 25 μM) | effect on burst duration of sEPSCs ([1]; 25 μM, holding potential −70 mV) | effect on amplitude of miniature EPSCs and IPSCs [1] | inhibition at 25 µM ([1]; Rattus norvegicus, Hippocampal neuron, 25 μM, holding potential −70 mV, read-out: inhibition of sIPSCs frequency of spontaneous occurrence) [%] | rheobase current to generate a single spike (DRG neurons; 25 μM NH25, control 400±41 pA, n=12) [pA] | number of evoked action potentials (DRG neurons; 25 μM NH25, 75-200 pA for 400 ms, control 10.4±0.8, n=8) | resting membrane potential (DRG neurons; 25 μM NH25, control −60.6±0.3 mV, n=13) [mV] | hyperpolarization of resting membrane potential (DRG neurons; 25 μM NH25, n=13) [mV] | rheobase current to generate a single spike (DRG neurons; 25 μM NH29, control 178±36 pA, n=8) [pA] | resting membrane potential (DRG neurons; 25 μM NH29, control −56.0±2.2 mV, n=7) [mV] | hyperpolarization of resting membrane potential (DRG neurons; 25 μM NH29, n=7) [mV]
1 | O=C(Cc1cc([N+](=O)[O-])ccc1Nc1c(Cl)cccc1Cl)OCCO [NH25] | did not significantly affect | about 50% | about 50% | markedly reduced | did not affect | > 98 | 577±38 | 0.8±0.3 | −69.0±0.3 | −8.3±0.2 |  |  | 
2 | O=C(Cc1cc([N+](=O)[O-])cc([N+](=O)[O-])c1Nc1c(Cl)cc([N+](=O)[O-])cc1Cl)NCCO [NH29] |  |  |  |  | did not affect |  |  |  |  |  | 300±55 | −65.0±3.4 | −9.0±1.9

From patent publication US9403756B2, “N-phenyl anthranilic acid derivatives and uses thereof” (Ramot at Tel-Aviv University Ltd., priority 2007, dated 2016)
